In patent publication US12383535B2, “Hydrogen peroxide-responsive KEAP1-NRF2 ppi inhibitor prodrug, and preparation method therefor” (CHINA PHARMACEUTICAL UNIVERSITY, priority 2019, dated 2025):

Test: In vivo pharmacokinetic study
Set-up: species or system SD rats
Conditions: rat
Method: Six male SD rats weighing about 260 g were used, with 3 rats for PO study and the other 3 rats for IV study. The test compound was dissolved in normal saline with a cosolvent to prepare a solution before the study. For the PO study, animals were administered orally (10 mg/kg). […] Blood was sampled at 0.0833, 0.25, 0.5, 1, 2, 4, 6, 8, 24 h in groups IV and PO. The blood samples were preserved on ice and then centrifuged at 2000 rpm and 4° C. for 10 min for separating plasma. The plasma samples were transferred and stored at −80° C. before analysis by LC-MS/MS.

- AUC0-t (I.V. 2 mg/kg): 1842 ± 363 ng·h/mL
- AUC0-∞ (I.V. 2 mg/kg): 1854 ± 366 ng·h/mL
- Cl_F (I.V. 2 mg/kg): 18.5 ± 3.9 mL/min/kg
- MRT (I.V. 2 mg/kg): 1.25 ± 0.30 h
- T1/2 (I.V. 2 mg/kg): 4.41 ± 3.01 h
- Vz_F (I.V. 2 mg/kg): 6.44 ± 4.09 L/kg
- AUC0-t (P.O. 10 mg/kg): 6203 ± 248 ng·h/mL
- AUC0-∞ (P.O. 10 mg/kg): 6315 ± 273 ng·h/mL
- Cl_F (P.O. 10 mg/kg): 26.4 ± 1.14 mL/min/kg
- Cmax (P.O. 10 mg/kg): 2753 ± 15.3 ng/mL
- MRT (P.O. 10 mg/kg): 1.82 ± 0.35 h
- T1/2 (P.O. 10 mg/kg): 2.09 ± 0.93 h
- Tmax (P.O. 10 mg/kg): 40.2 ± 17.4 min
- Vz_F (P.O. 10 mg/kg): 4.79 ± 2.17 L/kg
- bioavailability (oral): 68.1%
SMILES: COc1ccc(S(=O)(=O)Nc2ccc(N(CC(=O)N3CCSC3=O)S(=O)(=O)c3ccc(OC)cc3)c3ccccc23)cc1 [pro2]
